The values below come from patent US11000033B2, “Ketone or oxime compound, and herbicide” (NISSAN CHEMICAL CORPORATION, priority 2014, dated 2021).

Molecules are shown by their SMILES.

Holding throughout (type): in vivo
Data set [1] relates to Echinochloa oryzacola Vasing. Put plainly: Test Example 2: herbicidal activity, application during weed generation in submerged conditions (symbol A). The following applies: Table 23; application herbicide amount 320 g/ha; grade 0-5 by criteria of Test Example 1. Summed up:
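Treatment timing was the one- to two-leaf stage, with diluted emulsifiable compound dropped onto the paddy water (depth 4 cm) over alluvial soil. All three species grew from a mixed sowing in a 25° C. to 30° C. greenhouse. Injury was judged by eye 3 weeks on.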

A further data set concerns Lolium multiflorum Lam. The data set can be described thus: Test Example 4: herbicidal effect by soil treatment (symbol K). Particulars: application herbicide amount 320 g/ha. A digest of the protocol: (§1)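 Seeds were sown in sterilized diluvial soil, covered with about 1.5 cm of soil, and the soil surface was sprayed with a water-diluted emulsion of the compound at a predetermined rate. Plants grew in a greenhouse at 25° C. to 30° C.; effects were scored visually 3 weeks after application.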

For the next data set, the system named is transplanted rice plant. Put plainly: Test Example 1: effect on crop, application before weed generation in submerged conditions (symbol a). Particulars: application herbicide amount 320 g/ha. A digest of the protocol:
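Alluvial soil pots flooded to 4 cm water, sown with Echinochloa oryzacola, Scirpus juncoides and Monochoria vaginalis, then transplanted with 2.5 leaf stage rice seedlings; pre-emergence application. Greenhouse 25° C. to 30° C.; scored 0–5 by herbicidal ratio 3 weeks after application.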

Data set [2] relates to Veronica persica. The data set can be described thus: Test Example 5: herbicidal effect by foliage application, plastic box (symbol R). The following applies: 320 g/ha, 3 weeks after application. A digest of the protocol: (§2)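 Effect is rated 3 weeks after a foliar spray of water-diluted emulsion concentrate at a predetermined herbicide amount. Plants had grown 14 days in a 25° C. to 30° C. greenhouse from seed in sterilized diluvial soil.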

A further data set relates to corn. The data set can be described thus: Test Example 5: effect on crop by foliage application, plastic box (symbol c). Particulars: 320 g/ha, 3 weeks after application. Summed up: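 Plants were raised from seed in a greenhouse (25° C. to 30° C.) after sowing in a plastic box of sterilized diluvial soil.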
For the next data set, the system named is Digitaria ciliaris. The data set can be described thus: Test Example 4: herbicidal effect by soil treatment (symbol F). Particulars: application herbicide amount 320 g/ha. Summed up: as §1
Data set [3] has as its system Veronica persica. Put plainly: Test Example 4: herbicidal effect by soil treatment (symbol R). The following applies: application herbicide amount 320 g/ha. A digest of the protocol: as §1
Data set [4] has as its system Avena fatua. The data set can be described thus: Test Example 4: herbicidal effect by soil treatment (symbol I). The following applies: application herbicide amount 320 g/ha. Summed up: as §1
For another data set, the system named is Leptochloa chinensis. Put plainly: Test Example 3: herbicidal effect by foliage application, Wagner pot (symbol D). Particulars: application herbicide amount 320 g/ha. A digest of the protocol: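 The compound, formulated as an emulsion and diluted with water to a predetermined rate, is applied uniformly to leaves of two-week-old seedlings growing in submerged alluvial soil at 25–30 °C. Rice is included. Each plant is assessed 3 weeks later using defined criteria.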

The test system of a further data set is Setaria viridis. The data set can be described thus: Test Example 5: herbicidal effect by foliage application, plastic box (symbol G). The following applies: 320 g/ha, 3 weeks after application. Summed up:
as §2

Data set [5] concerns Avena fatua. Put plainly: Test Example 5: herbicidal effect by foliage application, plastic box (symbol I). The following applies: 320 g/ha, 3 weeks after application. A digest of the protocol: as §2
For data set [6], the system named is Chenopodium album. Put plainly: Test Example 4: herbicidal effect by soil treatment (symbol O). The following applies: application herbicide amount 320 g/ha. A digest of the protocol: as §1
Data set [7] concerns Echinochloa crus-galli var. crus-galli. The data set can be described thus: Test Example 4: herbicidal effect by soil treatment (symbol H). Particulars: application herbicide amount 320 g/ha. Summed up: as §1
Data set [8] has as its system Chenopodium album. Put plainly: Test Example 5: herbicidal effect by foliage application, plastic box (symbol O). Particulars: 320 g/ha, 3 weeks after application. A digest of the protocol:
as §2

On to `CON=C(C)CC1CC(OC(=O)N2CCCCC2)=C(c2c(C)cc(C)cc2OC)C1=O` (centres unmarked) [6-111], for which the “Herbicidal effect grade, A: Echinochloa oryzacola Vasing.” value in data set [1] was 5 (Herbicidal ratio of 90% or more (almost completely withered)). In addition, in the data set with Lolium multiflorum Lam., the “Herbicidal effect grade, K: Lolium multiflorum Lam.” value (“Herbicidal effect grade, K” below) is 5 (Herbicidal ratio of 90% or more (almost completely withered)). Further, the “Effect grade on crop, a: transplanted rice plant” value (“Effect grade on crop” below) in the data set with transplanted rice plant was 5 (Herbicidal ratio of 90% or more (almost completely withered)). Also, the “R: Veronica persica, herbicidal effect (criteria of Test Example 1)” value in the data set on Veronica persica [2] is 2 (Herbicidal ratio of 20% or higher and lower than 40%). Further, the “c: corn, effect on crop (criteria of Test Example 1)” value (shortened to “c: corn, effect on crop”) in the data set on corn is given as 5 (Herbicidal ratio of 90% or more (almost completely withered)). The “Herbicidal effect grade, F: Digitaria ciliaris” value (“Herbicidal effect grade, F” for short) in the data set on Digitaria ciliaris is 4 (Herbicidal ratio of 70% or higher and lower than 90%). Besides, the “Herbicidal effect grade, R: Veronica persica” value (shortened to “Herbicidal effect grade, R”) in the data set on Veronica persica [3] was 0 (Herbicidal ratio of 5% or lower (almost no effect)). Further, in the data set with Avena fatua [4], the “Herbicidal effect grade, I: Avena fatua” value is listed as 0 (Herbicidal ratio of 5% or lower (almost no effect)). For the same compound, the “herbicidal effect on D (Leptochloa chinensis), grade 0-5” value (“herbicidal effect on D” below) in the data set with Leptochloa chinensis is on record as 5 (Herbicidal ratio of 90% or more (almost completely withered)). The “G: Setaria viridis, herbicidal effect (criteria of Test Example 1)” value (shortened to “G: Setaria viridis, herbicidal effect”) with Setaria viridis is listed as 5 (Herbicidal ratio of 90% or more (almost completely withered)). In addition, in the data set with Avena fatua [5], the “I: Avena fatua, herbicidal effect (criteria of Test Example 1)” value is on record as 5 (Herbicidal ratio of 90% or more (almost completely withered)). Moreover, the “Herbicidal effect grade, O: Chenopodium album” value (shortened to “Herbicidal effect grade, O”) with Chenopodium album [6] is 0 (Herbicidal ratio of 5% or lower (almost no effect)). Besides, the “Herbicidal effect grade, H: Echinochloa crus-galli var. crus-galli” value (from here on “Herbicidal effect grade, H”) in data set [7] is 4 (Herbicidal ratio of 70% or higher and lower than 90%). Further, in the data set with Chenopodium album [8], the “O: Chenopodium album, herbicidal effect (criteria of Test Example 1)” value is recorded as 0 (Herbicidal ratio of 5% or lower (almost no effect)).

For `CON=C(C)CC1CC(OC(=O)N2CCOCC2)=C(c2c(C)cc(C)cc2OC)C1=O` (centres unmarked) [6-094], the “Herbicidal effect grade, A: Echinochloa oryzacola Vasing.” value in data set [1] is 5 (Herbicidal ratio of 90% or more (almost completely withered)). Besides, in the data set with Lolium multiflorum Lam., the “Herbicidal effect grade, K” value was 5 (Herbicidal ratio of 90% or more (almost completely withered)). Besides, the “Effect grade on crop” value in the data set with transplanted rice plant is 5 (Herbicidal ratio of 90% or more (almost completely withered)). Further, in the data set with Veronica persica [2], the “R: Veronica persica, herbicidal effect (criteria of Test Example 1)” value is 4 (Herbicidal ratio of 70% or higher and lower than 90%). For the same compound, the “c: corn, effect on crop” value with corn is 5 (Herbicidal ratio of 90% or more (almost completely withered)). For the same compound, in the data set on Digitaria ciliaris, the “Herbicidal effect grade, F” value was 5 (Herbicidal ratio of 90% or more (almost completely withered)). The “Herbicidal effect grade, R” value in the data set with Veronica persica [3] is 3 (Herbicidal ratio of 40% or higher and lower than 70%). The “Herbicidal effect grade, I: Avena fatua” value in the data set on Avena fatua [4] was 5 (Herbicidal ratio of 90% or more (almost completely withered)). Also, the “herbicidal effect on D” value with Leptochloa chinensis was 5 (Herbicidal ratio of 90% or more (almost completely withered)). Further, in the data set with Setaria viridis, the “G: Setaria viridis, herbicidal effect” value is 5 (Herbicidal ratio of 90% or more (almost completely withered)). The “I: Avena fatua, herbicidal effect (criteria of Test Example 1)” value with Avena fatua [5] was 5 (Herbicidal ratio of 90% or more (almost completely withered)). In addition, the “Herbicidal effect grade, O” value in the data set with Chenopodium album [6] is reported as 5 (Herbicidal ratio of 90% or more (almost completely withered)). In data set [7], the “Herbicidal effect grade, H” value is given as 5 (Herbicidal ratio of 90% or more (almost completely withered)). Moreover, the “O: Chenopodium album, herbicidal effect (criteria of Test Example 1)” value with Chenopodium album [8] is recorded as 5 (Herbicidal ratio of 90% or more (almost completely withered)).

As for `CON=C(C)CC1CC(OS(=O)(=O)N(C)C)=C(c2c(C)cc(C)cc2OC)C1=O` (centres unmarked) [6-095], the “Herbicidal effect grade, A: Echinochloa oryzacola Vasing.” value in data set [1] is listed as 5 (Herbicidal ratio of 90% or more (almost completely withered)). In addition, in the data set on Lolium multiflorum Lam., the “Herbicidal effect grade, K” value is 5 (Herbicidal ratio of 90% or more (almost completely withered)). Also, in the data set on transplanted rice plant, the “Effect grade on crop” value is 5 (Herbicidal ratio of 90% or more (almost completely withered)). The “R: Veronica persica, herbicidal effect (criteria of Test Example 1)” value with Veronica persica [2] was 3 (Herbicidal ratio of 40% or higher and lower than 70%). Further, in the data set with corn, the “c: corn, effect on crop” value was 5 (Herbicidal ratio of 90% or more (almost completely withered)). In the data set with Digitaria ciliaris, the “Herbicidal effect grade, F” value is given as 5 (Herbicidal ratio of 90% or more (almost completely withered)). Moreover, the “Herbicidal effect grade, R” value in the data set with Veronica persica [3] is 0 (Herbicidal ratio of 5% or lower (almost no effect)). For the same compound, the “Herbicidal effect grade, I: Avena fatua” value in the data set on Avena fatua [4] is 3 (Herbicidal ratio of 40% or higher and lower than 70%). Besides, the “herbicidal effect on D” value in the data set on Leptochloa chinensis is recorded as 5 (Herbicidal ratio of 90% or more (almost completely withered)). Besides, the “G: Setaria viridis, herbicidal effect” value in the data set on Setaria viridis is reported as 5 (Herbicidal ratio of 90% or more (almost completely withered)). The “I: Avena fatua, herbicidal effect (criteria of Test Example 1)” value in the data set with Avena fatua [5] was 5 (Herbicidal ratio of 90% or more (almost completely withered)). Also, the “Herbicidal effect grade, O” value in the data set on Chenopodium album [6] is given as 0 (Herbicidal ratio of 5% or lower (almost no effect)). Moreover, in [7], the “Herbicidal effect grade, H” value was 5 (Herbicidal ratio of 90% or more (almost completely withered)). Also, the “O: Chenopodium album, herbicidal effect (criteria of Test Example 1)” value in the data set with Chenopodium album [8] is listed as 5 (Herbicidal ratio of 90% or more (almost completely withered)).

In the case of `CON=C(C)CC1CC(O)=C(c2c(C)cc(-c3ccc(F)cc3)cc2C)C1=O` (mixture of isomers) [6-058], the “Herbicidal effect grade, A: Echinochloa oryzacola Vasing.” value in [1] was 5 (Herbicidal ratio of 90% or more (almost completely withered)). Moreover, the “K: Lolium multiflorum Lam., herbicidal effect grade” value with Lolium multiflorum Lam. is 5 (Herbicidal ratio of 90% or more (almost completely withered)). For the same compound, the “Effect grade on crop” value in the data set on transplanted rice plant was 5 (Herbicidal ratio of 90% or more (almost completely withered)). Also, in the data set with Veronica persica [2], the “R: Veronica persica, herbicidal effect (criteria of Test Example 1)” value is given as 5 (Herbicidal ratio of 90% or more (almost completely withered)). The “c: corn, effect on crop” value with corn is listed as 5 (Herbicidal ratio of 90% or more (almost completely withered)). For the same compound, the “F: Digitaria ciliaris, herbicidal effect grade” value in the data set with Digitaria ciliaris is given as 5 (Herbicidal ratio of 90% or more (almost completely withered)). The “R: Veronica persica, herbicidal effect grade” value with Veronica persica [3] is 5 (Herbicidal ratio of 90% or more (almost completely withered)). In addition, the “I: Avena fatua, herbicidal effect grade” value with Avena fatua [4] is given as 5 (Herbicidal ratio of 90% or more (almost completely withered)). Further, the “herbicidal effect on D” value with Leptochloa chinensis is listed as 5 (Herbicidal ratio of 90% or more (almost completely withered)). The “G: Setaria viridis, herbicidal effect” value with Setaria viridis is on record as 5 (Herbicidal ratio of 90% or more (almost completely withered)). For the same compound, the “I: Avena fatua, herbicidal effect (criteria of Test Example 1)” value in the data set on Avena fatua [5] is listed as 5 (Herbicidal ratio of 90% or more (almost completely withered)). Besides, the “O: Chenopodium album, herbicidal effect grade” value with Chenopodium album [6] is on record as 5 (Herbicidal ratio of 90% or more (almost completely withered)). Moreover, the “H: Echinochloa crus-galli var. crus-galli, herbicidal effect grade” value in [7] was 5 (Herbicidal ratio of 90% or more (almost completely withered)). Further, in the data set with Chenopodium album [8], the “O: Chenopodium album, herbicidal effect (criteria of Test Example 1)” value is 5 (Herbicidal ratio of 90% or more (almost completely withered)).
